Measured values from US12685761B2, “VIP and VIP agonists, nanoparticles, and uses in inflammatory T-cell mediated disease” (Emory University, priority 2018, dated 2026).

System: VIP-KO B6 recipients
Assay: Short-term VIP administration in allo-BMT GvHD lethality model (FIG. 4)
Format: in vivo, mice
Conditions: VIP 10 μgram/day vs PBS from day 0 to day 10; lethally irradiated VIP-KO B6 recipients infused with 5M TCD BM plus 3×10^6 B10.BR T cells
Text: Lethally irradiated WT and VIP-KO B6 recipients were infused with 5M TCD BM plus 3×10^6 B10.BR T cells.

Substance: vasoactive intestinal peptide [VIP]
- acute GvHD mortality after allo-BMT: rescued VIP-KO recipients from acute GvHD mortality
